Measured values: patent US11273145B2, “Compositions and methods for the treatment of acid-related gastrointestinal disorders containing a dithiolane compound and a gastric acid secretion inhibitor” (priority 2014, dated 2022)

What was measured:
[1] = tested on: intracellular glutathione (GSH); conditions: variety of cell types and tissues; cited from earlier work
cell monolayer = conditions: Transwell model; cited from earlier work
[2] = molecular target: T1, Na+-dependent multivitamin transporter (Homo sapiens, UniProt Q9Y289); conditions: in vitro; cited from earlier work
T1 sequence (Q9Y289 1-635): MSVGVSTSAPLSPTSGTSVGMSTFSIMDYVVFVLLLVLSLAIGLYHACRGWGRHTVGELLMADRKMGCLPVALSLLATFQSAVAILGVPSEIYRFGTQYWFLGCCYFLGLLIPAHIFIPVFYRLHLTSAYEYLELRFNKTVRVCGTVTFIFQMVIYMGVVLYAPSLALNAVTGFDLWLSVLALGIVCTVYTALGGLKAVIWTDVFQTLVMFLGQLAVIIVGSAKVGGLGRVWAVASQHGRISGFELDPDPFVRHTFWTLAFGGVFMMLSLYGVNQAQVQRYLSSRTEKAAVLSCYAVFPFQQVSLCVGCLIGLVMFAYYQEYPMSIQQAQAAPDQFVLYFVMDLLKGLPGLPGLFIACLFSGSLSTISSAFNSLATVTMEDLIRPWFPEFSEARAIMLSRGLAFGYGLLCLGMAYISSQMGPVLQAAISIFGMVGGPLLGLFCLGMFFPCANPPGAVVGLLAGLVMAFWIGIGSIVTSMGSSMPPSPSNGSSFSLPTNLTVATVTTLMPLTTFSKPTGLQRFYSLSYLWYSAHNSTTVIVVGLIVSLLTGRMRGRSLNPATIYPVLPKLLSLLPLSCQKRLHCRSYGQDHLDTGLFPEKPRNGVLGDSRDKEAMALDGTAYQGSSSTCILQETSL

GERD symptoms = assay: Example 1: subject diagnosed with GERD, self-reported relief on omeprazole alone vs omeprazole plus ALA; assay type: in vivo, human; conditions: scale of 1-10; 40 mg of omeprazole per day
Method: A middle aged subject diagnosed with GERD had been on the proton pump inhibitor omeprazole for approximately three years. The subject reported taking 40 mg of omeprazole per day to control symptoms of GERD. On a scale of 1-10, subject rated the effectiveness of omeprazole at 5. […] In accordance with the present disclosure, they began taking orally 20 mg of omeprazole and 400 mg of ALA on a daily basis. […] Subject rated effectives of regime of the present disclosure a 9 on a scale from 1-10. […] Additional study was undertaken to see to what extent the combination of proton pump inhibitor and ALA of the present disclosure would have on GERD and heartburn symptoms. The person was instructed to orally take 20 mg of omeprazole and 600 mg of ALA daily for 3 months. […] Other important facts were gathered from this 3-month study. The treatment regime is fast acting and generally will halt the symptoms of even the worst scenario of acid reflux in no more than 120 minutes. Continued relief is experienced for a minimum of 24 hours with no further oral intake of the combination regime. The participant reported eating regular foods with no more modified diet schemes. Foods such as pizza, spaghetti, chili, ice cream, pastrami, taco […] like, all once avoided, are now capable of being enjoyed at meal times.

heartburn and GERD = assay: Conclusions on the use of the combination regimes; assay type: in vivo, human; conditions: Omeprazole alone

Structure (SMILES)	effect on intracellular glutathione (GSH) [1]	transport across cell monolayer (cell monolayer)	transporter substrate status [2]	effectiveness rating by subject (GERD symptoms)	time to elimination of GERD symptoms, on the average (heartburn and GERD) [days]
O=C(O)CCCCC1CCSS1 (stereo not drawn) [ALA, Alpha-Lipoic Acid]	markedly increases	rapidly traverses the cell monolayer in a pH-dependent manner	substrate	–	–
COc1ccc2[nH]c([S+]([O-])Cc3ncc(C)c(OC)c3C)nc2c1 (centres unmarked) [omeprazole]	–	–	–	5	2
